Reference: patent US20260315653A1, “ANTICOAGULANT COMPOSITIONS COMPRISING ANTI-PLATELET AND ANTI-INFLAMMATORY DRUGS AND METHODS AND DEVICES FOR THEIR USE” (Elixir Medical Corporation, priority 2023, published 2026)
Like-named read-outs stand apart in the source and are kept apart here.

How the values were obtained:
[1] = test system: blood clotting (citrated sheep blood); assay: Activated clotting time (ACT) of EDTA or other anti-coagulant compounds in citrated sheep blood (Example 13)
Experimental: The activated clotting time (ACT) evaluation of anticoagulants was performed in Calcium-reconstituted sheep blood and recorded employing the Hemochron® Response device.
(§1) The ACT measurements were made in citrated sheep blood. 1.9 ml of citrated sheep blood was added to a test tube containing an activator (Hemochron@Celite@ ACT tubes, Lot F8FTE026 from Accriva Diagnostics, Inc.). A target amount of EDTA or other anti-coagulant compounds solution was then added into the test tube. The test tube was gently swirled so that the blood and EDTA or other anti-coagulant compounds was well-mixed. 0.1 ml of 0.3M calcium chloride was then added. The tube was gently shaken before being inserted into the Hemochron Response detector. The ACT read out was recorded and reported. The ACT of the control blood in the absence of any EDTA or other anti-coagulant compounds as first determined to establish a baseline. Then ACT was determined in the presence of different concentrations of EDTA or analogues as a single component.

[2] = test system: blood clotting (citrated sheep blood); assay: Net activated clotting time (net ACT) in citrated sheep blood (Examples 3-5); parameters: key: seconds; measured ACT minus blood control ACT (165 s); details: single drug, blood control 165 seconds
Experimental: The activated clotting time (ACT) evaluation of anticoagulants was performed in calcium citrate sheep blood and recorded employing the Hemochron® Response device. The ACT measurements were made in citrated sheep blood. 1.9 ml of citrated sheep blood was added to a test tube containing an activator (Hemochron@Celite@ ACT tubes, Lot F8FTE026 from Accriva Diagnostics, Inc.). A target amount of drug solution was then added into the test tube. The test tube was gently swirled so that the blood and drug were well-mixed. 0.1 ml of 0.3M calcium chloride was then added. The tube was gently shaken before being inserted into the Hemochron Response detector. The ACT read out was recorded and reported. The ACT of the control blood in the absence of any drug as first determined to establish a baseline. Here the blood control measured is 165 seconds. Then ACT was determined in the presence of different concentrations of the drug as a single component. In the following study, the net ACT (measured ACT minus blood control ACT) was utilized to visualize the synergistic effect of direct factor Xa inhibitor (Rivaroxaban) and direct factor IIa inhibitor (Argatroban) drug combinations. The figures are presented in ng/mg wherein the density of blood and tissue are approximately the same.
Example 4 is the continuation of example 3, which employed the same method as in example 3. The only difference is that the direct factor Xa inhibitor Edoxaban is used in place of direct factor Xa inhibitor Rivaroxaban.
Example 5 is the continuation of example 3, which employed the same method as in example 3. The only difference is that the direct factor Xa inhibitor Betrixaban is used in place of direct factor Xa inhibitor Rivaroxaban.

[3] = test system: blood clotting (heparinized sheep blood); assay: Net ACT initiated by platelet activation factor (PAF) and CaCl2 in heparinized sheep blood (Examples 6-11)
Experimental: In order to examine the potential synergistic effects between anti-inflammatory agents, direct factor Xa inhibitors, direct factor IIa inhibitors, antiplatelets (P2Y12 inhibitor and glycoprotein IIb/IIIa inhibitor, platelet activation factor and CaCl2 were utilized by measuring ACT. Heparinized sheep blood was used to preserve platelet function.
The activated clotting time (ACT) evaluation initiated by platelet activation factor (PAF) and calcium chloride (CaCl2) was performed in heparinized sheep blood and recorded employing the Hemochron® Response device. […] A target amount of drug solution was then added into the test tube. The test tube was gently swirled so that the blood and drug were well-mixed. […] The tube was gently shaken before being inserted into the Hemochron Response detector. The ACT read out was recorded and reported. The ACT of the control heparinized sheep blood in the absence of any drug as first measured to establish a baseline. […] Then ACT was measured in the presence of different concentrations of the drug measured. Selected drug combinations were then tested to evaluate for potential synergy in action between the drug combination. The net ACT (ACT minus blood control ACT) was utilized to visualize the synergistic effect. […] The figures are presented in ng/mg wherein the density of blood and tissue are approximately the same.

[4] = test system: blood clotting (fresh pig blood); assay: Activated clotting time (ACT) of EDTA or analogues in fresh pig blood (Example 12); details: for Increase in clotting time compared to control: control 154 sec; for blood coagulation compared to the blood control: EDTA 200 ng/mg, sodium salts 300 ng/mg
Experimental: The activated clotting time (ACT) evaluation of EDTA or analogues was performed in fresh pig blood and recorded employing the Hemochron® Response device.
as §1, with “fresh pig” for “citrated sheep”, “1.0” for “1.9”, “drug” for “EDTA or other anti-coagulant compounds”

[5] = pH of 1 mg/ml EDTA or analogue in water or phosphate buffer; assay type: physicochemical
Text: Based on the pH of EDTA or analogues in water and in 0.1M phosphate buffered saline as show in Table 2, EDTA disodium salt or dipotassium salt has a pH close to neutral pH in human body (6.42-6.92), whereas EDTA tetrasodium or trisodium has a very basic pH (>8.0) in human body. EDTA disodium or dipotassium is preferred in the examples.

[6] = as above; assay type: physicochemical; details: 1 mg/ml in 0.01 M pH 7.4 phosphate buffer, 21.8-22.3 ° C.
[7] = test system: porcine coronary artery; assay: In vivo porcine coronary stent implantation: fibrin score and late lumen loss (Examples 25-26); details: Table 9, day 7
Experimental: The drug eluting stent systems containing different anticoagulants prepared as described in Example 11 were evaluated at 3 hours, 6 hours, 1 day, 3 days, 6 days, 7 days, or 28 days following implantation in a porcine coronary artery model.
The porcine model was chosen as this model has been used extensively for stent and angioplasty studies resulting in a large volume of data on the vascular response properties and its correlation to human vascular response (Schwartz et al, Circulation. 2002; 106:1867 1873). The animals were housed and cared for in accordance with the Guide for the Care and Use of Laboratory Animals as established by the National Research Council.
After induction of anesthesia, the left or right femoral artery was accessed using standard techniques and an arterial sheath was introduced and advanced into the artery. Vessel angiography was performed under fluoroscopic guidance, a 7 Fr. guide catheter was inserted through the sheath and advanced to the appropriate location where intracoronary nitroglycerin was administered. An appropriate implantation segment of coronary artery was randomly selected and a 0.014″ guidewire inserted. Quantitative Coronary Angiography (QCA) was performed to document the results. The appropriately size stent was advanced to the deployment site. The balloon was inflated at a steady rate to a pressure sufficient to achieve a balloon to artery ratio of approximately 1.1 to 1.0.
Follow up angiography was performed at the designated timepoint for each of the animals. Late lumen loss (LLL) can be expressed as: […]
The LLL is an indicator of the amount smooth muscle cell (SMC) proliferation or inhibition. It is used to measure efficacy between drugs for SMC proliferation inhibition. The smaller the LLL, the better the efficacy of the drug.
Stented portions of coronary arteries were embedded in methyl methacrylate (MMA), then divided into a target of at least three blocks of approximately similar lengths for histology evaluation. Quantitative histopathological evaluation of stented artery sections was then performed and scored as indicated. For Fibrin formation, scores ranged from 0 to 3, with a score of 0 indicating absent or rare minimal spotting around struts of the stent, a score of 1 indicating the presence of fibrin in small amounts localized only around the struts, a score of 2 indicating the moderately abundant or denser presence of fibrin around and extending beyond the struts, and a score of 3 indicating the presence of abundant and dense fibrin and/or bridging of the fibrin between the struts. The mean score was calculated and reported. The mean of each section was then averaged to provide a mean fibrin score per stent. The smaller the fibrin score, the better efficacy.

[8] = 167 ng/mg, blood control 202 sec
[9] = 1 mg/ml in d-water, 21.8-22.0 ° C.
[10] = single drug, 0.05 ng/mg, PAF & CaCl2, blood control 235 seconds

CCCCCCCCCCCCCC[N+](C)(C)Cc1ccccc1.[Cl-] [Benzyldimethyltetradecyl-ammonium chloride]
Clotting time (ACT) ([1]; 67 ng/mg): 316 s
Increase in clotting time compared to control ([1]; 67 ng/mg): 114 s
Clotting time (ACT) ([1]; 100 ng/mg): 421 s
Increase in clotting time compared to control ([1]; 100 ng/mg): 219 s
Clotting time (ACT) ([1]; 133 ng/mg): 983 s
Increase in clotting time compared to control ([1]; 133 ng/mg): 781 s
Clotting time (ACT) [1, 8]: 1370 s
Increase in clotting time compared to control [1, 8]: 1168 s

COc1ccc(NC(=O)c2ccc(C(=N)N(C)C)cc2)c(C(=O)Nc2ccc(Cl)cn2)c1 [Betrixaban]
net ACT ([2]; 0.3 ng/mg): 21

COc1cc2c(c(OC)c1OC)-c1ccc(OC)c(=O)cc1[C@@H](NC(C)=O)CC2 [Colchicine]
net ACT [3]: 41 s

O=C(O)C(S)C(S)C(=O)O (stereo not drawn) [Dimercaptosuccinic acid (DMSA), Dimercaptosuccinic acid]
Clotting time (ACT) ([4]; 200 ng/mg): 151 s
Increase in clotting time compared to control ([4]; 200 ng/mg): -3 s

O=C(O)CN(CCN(CC(=O)O)CC(=O)O)CC(=O)O [EDTA dipotassium]
pH [5, 9]: 6.25
pH ([5]; in water and phosphate buffered saline, listed as dipotassium salt): 6.42-6.92
pH [6]: 6.93

CC(=O)OCOC(=O)CN(CCN(CC(=O)OCOC(C)=O)CC(=O)OCOC(C)=O)CC(=O)OCOC(C)=O [EDTA tetra acetoxymethyl ester]
Clotting time (ACT) ([4]; 500 ng/mg): 158 s
Increase in clotting time compared to control ([4]; 500 ng/mg): 4 s

O=C(O)CN(CCN(CC(=O)O)CC(=O)O)CC(=O)O [EDTA tri sodium]
pH [5, 9]: 9.21
pH ([5]; in water and phosphate buffered saline): > 8.0
pH [6]: 7.77

O=C(O)CN(CCN(CC(=O)O)CC(=O)O)CC(=O)O [EDTA, ethylenediaminetetraacetic acid]
Clotting time (ACT) ([4]; 75 ng/mg): 179 s
Increase in clotting time compared to control ([4]; 75 ng/mg): 25 s
Clotting time (ACT) ([4]; 100 ng/mg): 247 s
Increase in clotting time compared to control ([4]; 100 ng/mg): 93 s
Clotting time (ACT) ([4]; 150 ng/mg): 275 s
Increase in clotting time compared to control ([4]; 150 ng/mg): 121 s
Clotting time (ACT) ([4]; 200 ng/mg): >500 s
Increase in clotting time compared to control ([4]; 200 ng/mg): >346 s
blood coagulation compared to the blood control [4]: significant delayed blood coagulation

O=C(O)CN(CCN(CC(=O)O)CC(=O)O)CC(=O)O [EDTA•2Na•2H2O]
pH ([5]; 1 mg/ml in d-water, 21.8-22.0 ° C., listed as EDTA disodium): 6.42
pH ([5]; in water and phosphate buffered saline, listed as EDTA disodium salt): 6.42-6.92
Clotting time (ACT) ([4]; 100 ng/mg): 191 s
Increase in clotting time compared to control ([4]; 100 ng/mg): 37 s
Clotting time (ACT) ([4]; 200 ng/mg): 264 s
Increase in clotting time compared to control ([4]; 200 ng/mg): 110 s
Clotting time (ACT) ([4]; 300 ng/mg): 374 s
Increase in clotting time compared to control ([4]; 300 ng/mg): 220 s
blood coagulation compared to the blood control ([4]; listed as EDTA disodium salt): The same trend
pH ([6]; listed as EDTA disodium): 6.92

CN1CCc2nc(C(=O)N[C@@H]3C[C@@H](C(=O)N(C)C)CC[C@@H]3NC(=O)C(=O)Nc3ccc(Cl)cn3)sc2C1 [Edoxaban]
net ACT ([2]; 0.15 ng/mg): 42
net ACT ([2]; 0.3 ng/mg): 87

CCCSc1nc(N[C@@H]2C[C@H]2c2ccc(F)c(F)c2)c2nnn([C@@H]3C[C@H](OCCO)[C@@H](O)[C@H]3O)c2n1 [Ticagrelor]
net ACT [3, 10]: 18 s

CCCCS(=O)(=O)N[C@@H](Cc1ccc(OCCCCC2CCNCC2)cc1)C(=O)O [Tirofiban]
net ACT [3, 10]: 9 s

Dalteparin
LLL / smooth muscle cell proliferation compared to bare metal control stents [7]: larger LLLs compared to control
inhibition of fibrin formation compared to bare metal control stents [7]: not effective at inhibiting fibrin formation
